# Patent publication US20210346663A1, “METHODS FOR IMPROVING DRUG EFFICACY” (Nuvaira, Inc., priority 2012, published 2021)
# Experiment: Pulmonary function after vagus nerve disruption followed by drug administration in patients with obstructive lung disease
# Format: in vivo
# Settings: drug given after nerve activity-modulating treatment
# From the text: For two treatments with similar mechanisms of action (e.g., vagus nerve disruption that eliminates or reduces acetylcholine production and pharmacological inhibition of acetylcholine production or release), one would expect that the combination of such treatments would result in less of an improvement than the combination of two treatments with different/complementary mechanisms of action.
structure (smiles),measurement,value
CC(C)[N+]1(C)[C@@H]2CC[C@H]1C[C@@H](OC(=O)C(CO)c1ccccc1)C2 (stereo partly shown) [ipratropium bromide],effect on lung functions of administration after vagus nerve disruption,additive effect
